# Experimental data from patent US6627651B1, “Cyclic compounds and uses thereof” (Takeda Chemical Industries, Ltd., priority 1999, dated 2003).
row,melting point,Structure (SMILES)
1,233 to 236 °C,"Cc1ccc(-c2cncc(/C=C/C(=O)N[C@H]3CC[C@H](CN(C)C4CCOCC4)CC3)c2)cc1 [Compound 73, (trans, E)-3-[5-(4-methylphenyl)pyridin-3-yl]-N-[4-[N-methyl-N-(tetrahydropyran-4-yl)aminomethyl]cyclohexyl]acrylamide]"
2,165 to 167 °C,"Cc1ccc(-c2coc(/C=C/C(=O)N[C@H]3CC[C@H](CN(C)C4CCOCC4)CC3)c2)cc1 [Compound 74, (trans, E)-3-[4-(4-methylphenyl)furan-2-yl]-N-[4-[N-methyl-N-(tetrahydropyran-4-yl)aminomethyl]cyclohexyl]acrylamide]"
3,123 to 127 °C,"Cc1ccc(-c2ccc3c(c2)C=C(C(=O)N2CCC(N)CC2)CCO3)cc1 [Compound 76, 4-amino-1-(7-(4-methylphenyl)-2,3-dihydro-1-benzooxepine-4-carbonyl)piperidine]"
4,101 to 103 °C,"Cc1ccc(-c2ccc3c(c2)C=C(CN2CCC(NC4CCOCC4)CC2)CCO3)cc1 [Compound 80, 1-(7-(4-methylphenyl)-2,3-dihydro-1-benzooxepin-4-yl)methyl-4-((tetrahydropyran-4-yl)amino)piperidine]"
5,185 to 187 °C,"O=C(Nc1ccc(CN2CCCCC2)cc1)C1CCc2ccc(-c3ccccc3)cc2C1 (stereo not shown) [Compound 82, N-[4-(piperidinomethyl)phenyl]-7-phenyl-1,2,3,4-tetrahydronaphthalene-2-carboxamide]"
6,205 to 208 °C,"C[N+]1(Cc2ccc(NC(=O)C3CCc4ccc(-c5ccccc5)cc4C3)cc2)CCCCC1.[I-] (stereo not shown) [Compound 83, 1-[4-(7-phenyl-1,2,3,4-tetrahydronaphthalene-2-carboxamido)benzyl]-1-methylpiperidinium iodide]"
7,153 to 155 °C,"Cc1ccc(COc2cccc(C(=O)Nc3ccc(CN4CCCCC4)cc3)c2)cc1 [Compound 85, 3-(4-methylbenzyloxy)-4′-(piperidinomethyl)benzanilide]"
8,171 to 173 °C,"O=C(Nc1ccc(CN2CCCCC2)cc1)c1cccc(OCc2cccc3ccccc23)c1 [Compound 86, 3-(1-naphthylmethoxy)-4′-(piperidinomethyl)benzanilide]"
9,192 to 194 °C,"C[N+]1(Cc2ccc(NC(=O)c3cccc(OCc4ccccc4)c3)cc2)CCCCC1.[I-] [Compound 87, 1-[4-(3-benzyloxybenzoylamino)benzyl]-1-methylpiperidinium iodide]"
10,210 to 212 °C,"Cc1ccc(COc2cccc(C(=O)Nc3ccc(C[N+]4(C)CCCCC4)cc3)c2)cc1.[I-] [Compound 88, 1-methyl-1-[4-[3-(4-methylbenzyloxy)benzoylamino]benzyl]piperidinium iodide]"
11,211 to 213 °C,"C[N+]1(Cc2ccc(NC(=O)c3cccc(OCc4cccc5ccccc45)c3)cc2)CCCCC1.[I-] [Compound 89, 1-methyl-1-[4-[3-(1-naphthylmethoxy)benzoylamino]benzyl]piperidinium iodide]"
12,282 to 283 °C,"Cc1ccc(-c2ccc3c(c2)C=C(C(=O)Nc2ccc(C4=NCCN4)cc2)CCO3)cc1 [Compound 92, N-[4-(2-imidazolin-2-yl)phenyl]-7-(4-methylphenyl)-2,3-dihydro-1-benzooxepine-4-carboxamide]"
13,170 to 171 °C,"COC(=O)N1CCN=C1Cc1ccc(NC(=O)C2=Cc3cc(-c4ccc(C)cc4)ccc3OCC2)cc1 [Compound 96, N-[4-[(1-methoxycarbonyl-2-imidazolin-2-yl)methyl]phenyl]-7-(4-methylphenyl)-2,3-dihydro-1-benzooxepine-4-carboxamide]"
14,87 to 88 °C,"Cc1ccc(COc2cccc(/C=C/c3ccc(CN4CCCCC4)cc3)c2)cc1 [Compound 97, (E)-1-[4-[3-(4-methylbenzyloxy)styryl]benzyl]piperidine]"
15,189 to 192 °C,"Cc1ccc(COc2cccc(/C=C/c3ccc(C[N+]4(C)CCCCC4)cc3)c2)cc1.[I-] [Compound 98, (E)-1-methyl-1-[4-[3-(4-methylbenzyloxy)styryl]benzyl]piperidinium iodide]"
16,136 to 138 °C,"CCCOCCOc1ccccc1COc1ccc2c(c1)C=C(C(=O)Nc1ccc(CN(C)C3CCOCC3)cc1)CCS2(=O)=O [Compound 99, N-[4-[[N-methyl-N-(tetrahydropyran-4-yl)amino]methyl]phenyl]-7-[[2-(2-propoxyethoxy)benzyl]oxy]-1,1-dioxo-2,3-dihydro-1-benzothiepine-4-carboxamide]"

row,melting point,Structure (SMILES)
1,211 to 214 °C,"CCOc1ccccc1COc1ccc2c(c1)C=C(C(=O)Nc1ccc(CN(C)C3CCOCC3)cc1)CCS2(=O)=O [Compound 101, 7-[(2-ethoxybenzyl)oxy]-N-[4-[[N-methyl-N-(tetrahydropyran-4-yl)amino]methyl]phenyl]-1,1-dioxo-2,3-dihydro-1-benzothiepine-4-carboxamide]"
2,223 to 225 °C,"COc1ccccc1COc1ccc2c(c1)C=C(C(=O)Nc1ccc(CN(C)C3CCOCC3)cc1)CCS2(=O)=O [Compound 102, 7-[(2-methoxybenzyl)oxy]-N-[4-[[N-methyl-N-(tetrahydropyran-4-yl)amino]methyl]phenyl]-1,1-dioxo-2,3-dihydro-1-benzothiepine-4-carboxamide]"
3,205 to 207 °C,"CN(Cc1ccc(NC(=O)C2=Cc3cc(OCc4ccccc4Cl)ccc3S(=O)(=O)CC2)cc1)C1CCOCC1 [Compound 103, 7-[(2-chlorobenzyl)oxy]-N-[4-[[N-methyl-N-(tetrahydropyran-4-yl)amino]methyl]phenyl]-1,1-dioxo-2,3-dihydro-1-benzothiepine-4-carboxamide]"
4,132 to 136 °C,"CCOCCOc1ccccc1COc1ccc2c(c1)C=C(C(=O)Nc1ccc(CN(C)C3CCOCC3)cc1)CCS2(=O)=O [Compound 104, 7-[[2-(2-ethoxyethoxy)benzyl]oxy]-N-[4-[[N-methyl-N-(tetrahydropyran-4-yl)amino]methyl]phenyl]-1,1-dioxo-2,3-dihydro-1-benzothiepine-4-carboxamide]"
5,153 to 154 °C,"CCCOc1cccc(CCOc2ccc3c(c2)C=C(C(=O)Nc2ccc(CN(C)C4CCOCC4)cc2)CCS3(=O)=O)c1 [Compound 105, N-[4-[[N-methyl-N-(tetrahydropyran-4-yl)amino]methyl]phenyl]-7-[(3-propoxyphenethyl)oxy]-1,1-dioxo-2,3-dihydro-1-benzothiepine-4-carboxamide]"
6,161 to 162 °C,"CCCOc1ccccc1CCOc1ccc2c(c1)C=C(C(=O)Nc1ccc(CN(C)C3CCOCC3)cc1)CCS2(=O)=O [Compound 106, N-[4-[[N-methyl-N-(tetrahydropyran-4-yl)amino]methyl]phenyl]-7-[(2-propoxyphenethyl)oxy]-1,1-dioxo-2,3-dihydro-1-benzothiepine-4-carboxamide]"
7,185 to 187 °C,"CCOCCOc1ccc(COc2ccc3c(c2)C=C(C(=O)Nc2ccc(CN(C)C4CCOCC4)cc2)CCS3(=O)=O)cc1 [Compound 107, N-[4-[[N-methyl-N-(tetrahydropyran-4-yl)amino]methyl]phenyl]-7-[[4-(2-ethoxyethoxy)benzyl]oxy]-1,1-dioxo-2,3-dihydro-1-benzothiepine-4-carboxamide]"
8,146 to 147 °C,"CCCOCCOc1ccc(COc2ccc3c(c2)C=C(C(=O)Nc2ccc(CN(C)C4CCOCC4)cc2)CCS3(=O)=O)cc1OCC [Compound 110, 7-[[3-ethoxy-4-(2-propoxyethoxy)benzyl]oxy]-N-[4-[[N-methyl-N-(tetrahydropyran-4-yl)amino]methyl]phenyl]-1,1-dioxo-2,3-dihydro-1-benzothiepine-4-carboxamide]"
9,139 to 141 °C,"CCCOc1ccc(Oc2ccc3c(c2)C=C(C(=O)Nc2ccc(CN(C)C4CCOCC4)cc2)CCS3(=O)=O)cc1 [Compound 111, N-[4-[[N-methyl-N-(tetrahydropyran-4-yl)amino]methyl]phenyl]-7-(4-propoxyphenoxy)-1,1-dioxo-2,3-dihydro-1-benzothiepine-4-carboxamide]"
10,143 to 144 °C,"CCCOc1cccc(Oc2ccc3c(c2)C=C(C(=O)Nc2ccc(CN(C)C4CCOCC4)cc2)CCS3(=O)=O)c1 [Compound 112, N-[4-[[N-methyl-N-(tetrahydropyran-4-yl)amino]methyl]phenyl]-7-(3-propoxyphenoxy)-1,1-dioxo-2,3-dihydro-1-benzothiepine-4-carboxamide]"
11,147 to 149 °C,"CCCc1ccc(Oc2ccc3c(c2)C=C(C(=O)Nc2ccc(CN(C)C4CCOCC4)cc2)CCS3(=O)=O)cc1 [Compound 113, N-[4-[[N-methyl-N-(tetrahydropyran-4-yl)amino]methyl]phenyl]-7-(4-propylphenoxy)-1,1-dioxo-2,3-dihydro-1-benzothiepine-4-carboxamide]"
12,159 to 160 °C,"CCCOCCOc1ccc(Oc2ccc3c(c2)C=C(C(=O)Nc2ccc(CN(C)C4CCOCC4)cc2)CCS3(=O)=O)cc1OCC [Compound 114, 7-[3-ethoxy-4-(2-propoxyethoxy)phenoxy]-N-[4-[[N-methyl-N-(tetrahydropyran-4-yl)amino]methyl]phenyl]-1,1-dioxo-2,3-dihydro-1-benzothiepine-4-carboxamide]"
13,162 to 164 °C,"CCCOCc1ccccc1Oc1ccc2c(c1)C=C(C(=O)Nc1ccc(CN(C)C3CCOCC3)cc1)CCS2(=O)=O [Compound 115, N-[4-[[N-methyl-N-(tetrahydropyran-4-yl)amino]methyl]phenyl]-7-(2-propoxymethylphenoxy)-1,1-dioxo-2,3-dihydro-1-benzothiepine-4-carboxamide]"
14,181 to 185 °C,"COc1cccc(COc2ccc3c(c2)C=C(C(=O)Nc2ccc(CN(C)C4CCOCC4)cc2)CCS3(=O)=O)c1 [Compound 117, 7-(3-methoxybenzyloxy)-N-[4-[[N-methyl-N-(tetrahydropyran-4-yl)amino]methyl]phenyl]-1,1-dioxo-2,3-dihydro-1-benzothiepine-4-carboxamide]"
15,189 to 192 °C,"CCOc1cccc(COc2ccc3c(c2)C=C(C(=O)Nc2ccc(CN(C)C4CCOCC4)cc2)CCS3(=O)=O)c1 [Compound 118, 7-(3-ethoxybenzyloxy)-N-[4-[[N-methyl-N-(tetrahydropyran-4-yl)amino]methyl]phenyl]-1,1-dioxo-2,3-dihydro-1-benzothiepine-4-carboxamide]"
